Reference: patent US4876260A, “Oxathiolanes” (State of Israel, Israel Institute of Biological Research, priority 1988, dated 1989)
Several values for one entry are separate records, joined by “and”; a condition that tells them apart may be missing. Identical values can stand only once. Entries after “also recorded” stand apart in the source; their conditions may differ. Like-named read-outs stand apart in the source and are kept apart here.

Key:
[1] = system: isolated guinea-pig ileum; assay: Contraction of isolated guinea-pig ileum preparation
Text: (§1) From this Table, it appears that compounds (III) were not so effective in contracting the guinea pig ileum preparation.

[2] = system: mice; assay: Pharmacodynamic profile and general toxicity in mice; assay type: in vivo, CD-1 mice
Protocol: Male white mice of the CD-1 strain supplied by Charles River Ltd. (U.K.) were used throughout. An acclimatization period of at least three days was allowed between arrival and commencement of a particular experimental series. The animals were fed a complete commercial pelleted rodent diet without restriction during the acclimatization and study periods. Animals had free access to tap water. Body weights during testing were mostly within 20-28 g.
Test materials were prepared as aqueous solutions in physiological saline (0.9% NaCl), up to a maximum concentration of 10 mg./ml. All materials were freshly prepared on the morning prior to each dosing session. Dosages were expressed gravimetrically (mg./kg.), in terms of the materials as received.
Groups of mice (mostly n=5) received either i.v. or oral administration of the test materials at various dose levels. Dose volumes appropriate for respective dose levels selected, were determined for each animal according to body weights on the day of dosing. Any behavioral changes occurring during one to two hours after administration, as well as incidence of death up to 24 hours after dosing were recorded.

[3] = biological target: muscarinic receptors (3H-CD sites, frontal cortex); assay: Displacement of 3H-CD from rat frontal cortex homogenate; assay type: binding; settings: (c') frontal cortex
[4] = system: ACh-induced contractions of guinea-pig ileum; assay: Blocking of ACh-induced contractions of isolated guinea-pig ileum
Text: as §1

[5] = biological target: T1, M1 muscarinic receptors (3H-PZ sites, frontal cortex) (Rattus norvegicus, UniProt P08482); assay: Displacement of 3H-PZ from rat frontal cortex homogenate; assay type: binding; settings: for a':c', Ki(3H-PZ):Ki(3H-CD): (g) frontal cortex ratio
T1 sequence (P08482 1-460): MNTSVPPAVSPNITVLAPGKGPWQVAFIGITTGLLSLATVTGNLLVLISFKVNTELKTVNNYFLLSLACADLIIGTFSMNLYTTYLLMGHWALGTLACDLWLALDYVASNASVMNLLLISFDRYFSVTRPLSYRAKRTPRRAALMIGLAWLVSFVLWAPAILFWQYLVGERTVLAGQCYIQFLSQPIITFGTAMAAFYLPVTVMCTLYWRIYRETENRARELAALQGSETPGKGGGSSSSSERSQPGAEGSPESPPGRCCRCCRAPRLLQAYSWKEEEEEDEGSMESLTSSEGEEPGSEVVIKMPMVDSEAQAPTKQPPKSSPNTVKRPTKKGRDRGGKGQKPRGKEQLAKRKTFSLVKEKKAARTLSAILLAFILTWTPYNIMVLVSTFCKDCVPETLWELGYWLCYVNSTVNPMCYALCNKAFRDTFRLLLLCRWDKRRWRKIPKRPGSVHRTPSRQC

[6] = biological target: T2, muscarinic receptors (3H-QNB sites, cerebellum, mainly M2) (Rattus norvegicus, UniProt P10980); assay: biochemical; assay type: binding; settings: Ki(3H-QNB), (b") cerebellum
T2 sequence (P10980 1-466): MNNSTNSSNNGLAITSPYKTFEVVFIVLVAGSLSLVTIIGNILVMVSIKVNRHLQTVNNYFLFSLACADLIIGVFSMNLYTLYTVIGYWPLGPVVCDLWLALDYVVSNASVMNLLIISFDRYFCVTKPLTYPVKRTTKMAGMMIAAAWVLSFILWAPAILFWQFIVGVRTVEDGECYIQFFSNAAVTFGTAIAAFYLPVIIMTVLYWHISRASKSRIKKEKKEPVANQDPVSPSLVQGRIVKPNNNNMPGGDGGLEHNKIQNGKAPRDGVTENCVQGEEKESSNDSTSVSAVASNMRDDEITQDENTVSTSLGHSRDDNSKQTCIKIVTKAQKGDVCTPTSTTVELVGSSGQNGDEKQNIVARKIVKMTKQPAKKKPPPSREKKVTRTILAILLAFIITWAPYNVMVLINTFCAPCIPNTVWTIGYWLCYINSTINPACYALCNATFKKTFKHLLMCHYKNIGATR

[7] = system: muscarinic receptors (3H-QNB sites, cerebellum, mainly M2); assay: biochemical; assay type: binding, rat; settings: for b':b": (k) Ki(3H-QNB) frontal cortex : Ki(3H-QNB) cerebellum
[8] = biological target: muscarinic receptors (3H-QNB sites, frontal cortex); assay type: binding, rat; settings: (b') frontal cortex
[9] = biological target: T3, M1 muscarinic receptors (3H-PZ sites, forebrain) (Rattus norvegicus, UniProt P08482); assay: Displacement of 3H-Pirenzepine (3H-PZ, selective M1 antagonist) from rat forebrain homogenate; assay type: binding
T3 sequence (P08482 1-460): T1 sequence (P08482 1-460)

[10] = biological target: muscarinic receptors (3H-CD sites, M1 and M2, forebrain); assay: Displacement of 3H-cis-dioxolane (3H-CD, non-selective M1 and M2 agonist) from rat forebrain homogenate; assay type: binding
[11] = system: all muscarinic receptors; settings: cited from earlier work
[12] = biological target: muscarinic receptors (3H-QNB sites, M1 and M2, forebrain); assay type: binding, rat; settings: (b) forebrain
[13] = 25 mg/kg i.v., listed as (±)-III AF122B
[14] = 100 mg/kg i.v., immed = immediately
[15] = 100 mg/kg p.o., listed as (±)-III AF122B
[16] = 200 mg/kg p.o., listed as (±)-III AF122B
[17] = (a') frontal cortex, read-out: Ki(3H-PZ)
[18] = 25 mg/kg i.v., listed as (±)-III AF122A
[19] = 100 mg/kg p.o., listed as (±)-III AF122A
[20] = 200 mg/kg p.o., listed as (±)-III AF122A

With CC1OCC2(CN3CCC2CC3)S1 (stereo not drawn) [compound 8, 2-methylspiro(1,3-oxathiolan-4,3')quinuclidine] the Desensitization [1] was “desensitization that was observed”, the “Blocking of the contractions by atropine (remarks)” value ([1]; listed as AF122B) was “the contractions were only partially blocked by atropine” and the “Contraction of guinea pig ileum (in words)” value ([1]; listed as AF122B) was “contracted the ileum muscle”. The “Mortality, No. dead/total treated” value ([2]; 10 mg/kg i.v., listed as (±)-III AF122B) was 0/3, the “Analgesia (nonresponsiveness to tail pinch), No. affected/total treated” value (“Analgesia … No. affected/total treated” for short) [2, 13] was 2/5 and the “Convulsive seizures, No. affected/total treated” value [2, 13] was 5/5. For the same compound, the “Exophthalmus, No. affected/total treated” value [2, 13] was 2/5, the “Mortality, No. dead/total treated” value [2, 13] was 3/5 and the “Respiratory distress, No. affected/total treated” value [2, 13] was 2/5. The “Tremors, No. affected/total treated” value [2, 13] was 5/5, the “Convulsive seizures, No. affected/total treated” value ([2]; 50 mg/kg i.v.) was 2/2 and the “Mortality, No. dead/total treated” value ([2]; 50 mg/kg i.v.) was 2/2. For the same compound, the “Mortality, time after drug administration” value (“Mortality, time” for short) ([2]; 50 mg/kg i.v.) was 5 s, the “Tremors, No. affected/total treated” value ([2]; 50 mg/kg i.v.) was 2/2 and the “Mortality, No. dead/total treated” value ([2]; 50 mg/kg p.o.) was 0/5. The “Mortality, No. dead/total treated” value ([2]; 100 mg/kg i.v.) was 2/2, the “Mortality, time” value [2, 14] was “immed” and the “Analgesia … No. affected/total treated” value ([2]; 100 mg/kg p.o.) was 4/4. For the same compound, the “Convulsive seizures, No. affected/total treated” value ([2]; 100 mg/kg p.o.) was 4/4, the “Vocalization, No. affected/total treated” value ([2]; 100 mg/kg p.o.) was 1/4 and the “Mortality, No. dead/total treated” value [2, 15] was 1/4. The “Tremors, No. affected/total treated” value [2, 15] was 4/4, the “Mortality, time” value ([2]; 100 mg/kg p.o., m = minutes) was 15 m and the “Analgesia … No. affected/total treated” value ([2]; 200 mg/kg p.o.) was 4/4. For the same compound, the “Respiratory distress, No. affected/total treated” value ([2]; 200 mg/kg p.o.) was 4/4, the “Vocalization, No. affected/total treated” value ([2]; 200 mg/kg p.o.) was 2/4 and the “Convulsive seizures, No. affected/total treated” value [2, 16] was 4/4. For the same compound, the “Mortality, No. dead/total treated” value [2, 16] was 4/4, the “Tremors, No. affected/total treated” value [2, 16] was 4/4 and the “Mortality, time” value ([2]; 200 mg/kg p.o., m = minutes) was 15 m. The Ki [3] was 2300 nM, the “Effect on ACh-induced contractions (in words)” value ([4]; listed as AF122B) was “consistently blocked ACh-induced contractions” and the “a':b', Ki(3H-PZ):Ki(3H-QNB)” value [5] was 0.11. The Ki [5, 17] was 1660 ± 240 nM, the “a':c', Ki(3H-PZ):Ki(3H-CD)” value [5] was 0.7 and the Ki [6] was 21100 ± 7600 nM. For the same compound, the “b':b"” value [7] was 0.73 and the Ki [8] was 15300 ± 2200 nM.
With O=C1CCCN1CC#CCN1CCCC1 [compound 1, Oxotremorine] the Ki [3] was 1.6 ± 0.4 nM, the “order of the ratios Ki(3H-PZ):Ki(3H-CD)” value [9] was “oxotremorine >McN-A-343>compound # 3; also recorded: weakest relative affinity towards M1 binding sites” and the “a:b, Ki(3H-PZ):Ki(3H-QNB)” value ([9]; (d) forebrain ratio) was 0.29. The “order of the ratios Ki(3H-PZ):Ki(3H-QNB)” value ([9]; forebrain, among oxotremorine, McN-A-343, compound #3) was “McN-A-343 >compound #3>oxotremorine; also recorded: relatively stronger than McN-A-343 and compound #3”, the Ki ([10]; (c) forebrain, * in M × 10^-10) was 0.96 ± 0.42 nM and the “a':b', Ki(3H-PZ):Ki(3H-QNB)” value ([5]; (f) frontal cortex ratio) was 0.1. For the same compound, the “a':c', Ki(3H-PZ):Ki(3H-CD)” value [5] was 137.5, the Ki ([5]; Ki(3H-PZ)) was 220 ± 70 nM and the “affinity towards all muscarinic receptors (in words)” value [11] was “greater than those of the weaker agonists McN-A-343 or compound #3”. The Ki [6] was 700 nM and 1310 nM, the “a:b"” value ([7]; (h) Ki(3H-PZ) forebrain : Ki(3H-QNB) cerebellum) was 0.86 and the “b:b"” value ([7]; (j) Ki(3H-QNB) forebrain : Ki(3H-QNB) cerebellum) was 3.00. For the same compound, the “b':b"” value [7] was 1.69, the “order of M1 versus M2 selectivity, IC50 (FB):IC50 (CER) or IC50 (frontal cortex):IC50 (CER)” value ([7]; FB=forebrain, CER=cerebellum) was “compound #4>compound #3>oxotremorine” and the Ki [8] was 2200 ± 300 nM. It also gave a Ki [12] of 2100 ± 300 nM.
With CC1OCC2(CN3CCC2CC3)S1 (stereo not drawn) [compound 11, 2-methylspiro(1,3-oxathiolan-4,3')quinuclidine] the “Contraction of guinea pig ileum (in words)” value ([1]; listed as AF122A) was “did not produce any significant contractions in the concentration range within which it binds to the brain receptors”, the “Analgesia … No. affected/total treated” value ([2]; 10 mg/kg i.v.) was 2/5 and the “Vocalization, No. affected/total treated” value ([2]; 10 mg/kg i.v.) was 2/5. For the same compound, the “Mortality, No. dead/total treated” value ([2]; 10 mg/kg i.v., listed as (±)-III AF122A) was 0/5, the “Vocalization, No. affected/total treated” value ([2]; 25 mg/kg i.v.) was 3/6 and the “Analgesia … No. affected/total treated” value [2, 18] was 4/5. The “Convulsive seizures, No. affected/total treated” value [2, 18] was 1/6, the “Exophthalmus, No. affected/total treated” value [2, 18] was 3/6 and the “Mortality, No. dead/total treated” value [2, 18] was 1/6. For the same compound, the “Respiratory distress, No. affected/total treated” value [2, 18] was 4/6, the “Tremors, No. affected/total treated” value [2, 18] was 3/6 and the “Mortality, time” value ([2]; 25 mg/kg i.v., m = minutes) was 1 m. The “Convulsive seizures, No. affected/total treated” value ([2]; 50 mg/kg i.v.) was 2/2, the “Mortality, No. dead/total treated” value ([2]; 50 mg/kg i.v.) was 2/2 and the “Mortality, time” value ([2]; 50 mg/kg i.v.) was 5 s. For the same compound, the “Mortality, No. dead/total treated” value ([2]; 50 mg/kg p.o.) was 0/5, the “Mortality, No. dead/total treated” value ([2]; 100 mg/kg i.v.) was 2/2 and the “Mortality, time” value [2, 14] was “immed”. For the same compound, the “Mortality, No. dead/total treated” value [2, 19] was 0/5, the “Tremors, No. affected/total treated” value [2, 19] was 5/5 and the “Mortality, time” value ([2]; 200 mg/kg p.o.) was 30 s. The “Convulsive seizures, No. affected/total treated” value [2, 20] was 5/5, the “Mortality, No. dead/total treated” value [2, 20] was 5/5 and the “Tremors, No. affected/total treated” value [2, 20] was 5/5. For the same compound, the “M1 selectivity (in words)” value ([9]; from Tables 2A, 2B, 2C) was “high M1 selectivity”, the Ki ([10]; Table 2B column (c'), footnote *forebrain) was 750 nM and the “Effect on ACh-induced contractions (in words)” value ([4]; listed as AF122A) was “perturbed the ACh-induced contractions when applied in relatively high concentrations”. For the same compound, the “a':b', Ki(3H-PZ):Ki(3H-QNB)” value [5] was 0.09, the Ki [5, 17] was 840 ± 30 nM and the “a':c', Ki(3H-PZ):Ki(3H-CD)” value [5] was 1.0. For the same compound, the Ki [6] was 19800 ± 6100 nM, the “b':b"” value [7] was 0.49 and the Ki [8] was 9700 ± 2300 nM.
